Consider nine compounds from patent US20260364175A1, “COMPOSITIONS FOR DRUG ADMINISTRATION” (Aegis Therapeutics, LLC, priority 2018, published 2026).

The conditions of data set [1]: fast-dispersing tablets 50 mg with 1% to 2% alkylsaccharide.
For data set [2], the system named is Staphylococcus aureus (ATCC No. 6538). As to the kind of experiment: Antibacterial activity, log reduction of cfu. It is filed as cell-based. From the text:
(§1) The viable microorganisms used in the invention were not more than five passages removed from the original ATCC culture. As described herein, one passage is defined as the transfer of organisms from an established culture to fresh medium and all transfers are counted.
(§2) Cultures received from the ATCC are resuscitated according to the directions provided by the ATTC. Cells grown in broth were pelleted by centrifugation, resuspended in 1/20th the volume of fresh maintenance broth, and combined with an equal volume of 20% (v/v in water) sterile glycerol. Cells grown on agar were scraped from the surface into the maintenance broth also containing 10% glycerol broth. Small aliquots of the suspension were dispensed into sterile vials and the vials were stored in liquid nitrogen or in a mechanical freezer at a temperature no higher than about −50 °C. When a fresh seed-stock vial was required, it was removed and used to inoculate a series of working stock cultures. These working stock cultures were then used periodically (each day in the case of bacteria and yeast) to start the inoculum culture.
(§3) The culture conditions for the inoculum culture is substantially as described in Table IV. For example, suitable media can include but is not limited to, Soybean-Casein Digest or Sabouraud Dextrose Agar Medium. […]
(§4) The suspension should be refrigerated if it is not used within 2 hours. To confirm the initial cfu per mL estimate, the number of cfu per mL in each suspension was determined using the conditions of media and microbial recovery incubation times listed in Table IV (e.g., from about 3 to about 7 days). This value serves to calibrate the size of inoculum used in the test. The bacterial and yeast suspensions were used within 24 hours of harvest; whereas the fungal preparation can be stored under refrigeration for up to 7 days.
(§5) To determine which alkylglycoside formulations have antibacterial activity, the formulations were prepared in phosphate buffered saline (PBS) at pH 7. As a source of nutrition, either 1.5 mg/mL bovine serum albumin (BSA; see Tables V and VI) or 1 mg/mL of PYY was added (see Table VII) to the medium. BSA (CAS Number: 9048-46-8) was obtained from Sigma-Aldrich, St. Louis, MO, USA, n-dodecyl-4-O-α-D-glucopyranosyl-β-D-glucopyranoside and n-tetradecyl-4-O-α-D-glucopyranosyl-β-D-glucopyranoside were obtained from Anatrace Inc., Maumee, OH, USA, and PYY was obtained from Bachem California Inc., Torrance, CA, USA.
(§6) Antibacterial activity of the alkylglycosides were conducted in four sterile, capped bacteriological containers of suitable size into which a sufficient volume of alkylglycoside solution had been transferred. Each container was inoculated with one of the prepared and standardized inoculums and mixed. The volume of the suspension inoculum was between about 0.5% and about 1.0% of the volume of the alkylglycoside solution. […]. To determine the level of inhibition of growth, or reduction of growth based on a logarithmic scale, the initial concentration of viable microorganisms in each test preparation was estimated based on the concentration of microorganisms in each of the standardized inoculum as determined by the plate-count method. The inoculated containers were then incubated at about 22.5 °C±2.5. The growth or non-growth of the microorganisms in each culture/container were again determined at day 14 and day 28. The number of cfu present in each calculation was determined by the plate-count procedure standard in the art for the applicable intervals. The change in the orders of magnitude of bacterium and/or fungi was then determined by subtracting the first calculated log 10 values of the concentrations of cfu per mL present at the start or beginning (e.g., day 0), from the log 10 values of the concentration of cfu per mL for each microorganism at the applicable test intervals (e.g., day 14 and day 28; see Tables V, VI and VII).

In data set [3] the test system is Escherichia coli (ATCC No. 8739). The experiment in a line: Antibacterial activity, log reduction of cfu. It counts as cell-based. The conditions noted are these: 0.2%; day 28.
Text: as §1, §2, §3, §4, §5, §6

The test system of data set [4] is blood glucose. As to the kind of experiment: Insulin plus tetradecylmaltoside as eye drops then nose drops, blood glucose in rats. It counts as in vivo, rat. From the text: Tetradecylmaltoside (TDM) in combination with insulin also produced a drop in blood D-glucose levels when administered in the form of a drop intranasally as well as via a drop by the ocular route. […] Thus, intranasal delivery and administration of the alkyl saccharide with drug results in lowering of blood glucose levels.

Data set [5] has as its system Aspergillus niger (ATCC No. 16404). As to the kind of experiment: Antimicrobial activity, log reduction of cfu. It is filed as cell-based.
Text: as §1, §2, §3, §4, §5, §6

Data set [6] deals with Candida albicans (ATCC No. 10231). The experiment in a line: Antimicrobial activity, log reduction of cfu. It is filed as cell-based.
Text: as §1, §2, §3, §4, §5, §6

The test system of data set [7] is blood glucose. The experiment in a line: Ocular administration of insulin plus absorption enhancer, blood glucose in anesthetized rats. It is filed as in vivo, rat (male Sprague-Dawley).
Data set [8] deals with human nasal epithelium. As to the kind of experiment: Nasal mucosa irritation.
The conditions of data set [9]: whole-swallowed tablet, oral; cited from earlier work.
The conditions of data set [10]: 10 mg fast-dispersing tablet with alkylsaccharide, buccal.
Data set [11] can be described thus: clinical. The settings on record: human, in vivo.
For data set [12] the following is noted: cited from earlier work.
A short description of data set [13]: Raloxifene pharmacokinetics. It is filed as in vivo. How it is done: The recommended dosage is one 60 mg tablet daily. […]. […].
The test system of data set [14] is blood glucose. The conditions noted are these: previous studies; cited from earlier work.
Data set [15] concerns blood glucose. The experiment in a line: Ocular administration of glucagon plus surfactant, blood glucose in rats. It counts as in vivo, rat. The settings on record: eye drops, 0.5% surfactant plus glucagon (30 μg).
The conditions of data set [16]: cited from earlier work. The source holds these as a separate data set.
A short description of data set [17]: Oral phenylephrine tablet bioavailability in a canine model. The conditions noted are these: compressed tablets. It is filed as in vivo, dog. How it is done: In a canine model, subjects were dosed orally with various phenylephrine (PE) tablet formulations, and blood samples were taken to determine the rate of parent phenyl ethyl phenylephrine absorption. Blood levels of parent phenylephrine were measured. Three subject groups were created with each alkylsaccharide test group containing five subjects in each test group. All subject groups received 10 mg of phenylephrine as a single tablet. Each subject was in the fasting state for overnight and two hours post dose. Blood samples were taken at pre-dose, 5, 10, 15, 30, 45 min., 1, 2, and 3 hours.
Comparator was the standard 30 mg (total weight including excipients) phenylephrine tablet was no absorption enhancer. Group number 2 tablets contain the alkylsaccharide designated A3, which is n-dodecyl-beta-D-maltoside in the amounts of 2.5 mg, 5 mg, and 7.5 mg, respectively. Group number three tablets contain the alkylsaccharide designated B3, which is sucrose monododecanoate, in the amounts of 5 mg, 10 mg, and 20 mg, respectively.

The conditions of data set [18]: aqueous liquid with SDS and an organic acid; cited from earlier work.
The subject of data set [19] is food intake. The conditions noted are these: injection, on average; cited from earlier work.
The test system of data set [20] is mucociliary surfaces. The conditions noted are these: far below concentrations used in intranasal formulations; cited from earlier work.

The term Tmax denotes the time from dosing to the highest level. As usually defined, the bioavailability is the share of a dose that reaches the circulation, judged against a reference dose that is usually intravenous.

Entries after “also recorded” stand apart in the source; their conditions may differ.

On to `CN(C)CCOC(c1ccccc1)c1ccccc1` [Diphenhydramine], for which the onset of action result in [1] is “more rapid onset of action”.

As to `CCCCCCCCCCCCCCO[C@@H]1O[C@H](CO)[C@@H](O[C@H]2O[C@H](CO)[C@@H](O)[C@H](O)[C@H]2O)[C@H](O)[C@H]1O` [Tetradecyl Maltoside, n-tetradecyl-4-O-α-D-glucopyranosyl-β-D-glucopyranoside], the log reduction at 0.2 % was ≥ 5 in [2] (ATCC6538, 336 h); ≥ 5 in data set [2] (ATCC6538, 672 h); 0.5 in data set [5] (Aspergillus niger, ATCC16404, 336 h); 3 in data set [6] (ATCC10231, 336 h); ≥ 5.4 in [6] (ATCC10231, 672 h). In addition, the “growth from initial count” value in data set [3] is “No growth”; in [5] (0.2%, day 28) it was “No growth”. Further, the “Blood Glucose” value in data set [4] (0 min, insulin eye drops with […]) stood at 322 mg/dL; in data set [4] (15 min, insulin eye drops with […]), 335 mg/dL; in [4] (30 min, insulin eye drops with […]), 276 mg/dL; in [4] (45 min, insulin eye drops with […]), 221 mg/dL; in data set [4] (60 min, insulin eye drops with […]), 212 mg/dL; in data set [4] (75 min, insulin eye drops with […]), 167 mg/dL. For the same compound, the “Blood Glucose” value in data set [4] (90 min, insulin eye drops with […]) was 174 mg/dL; in [4] (120 min, insulin eye drops with […]), 208 mg/dL; in [4] (135 min, after insulin nose drops with 0.5%), 129 mg/dL; in data set [4] (150 min, after insulin nose drops with 0.5%), 74 mg/dL; in data set [4] (165 min, after insulin nose drops with 0.5%), 76 mg/dL; in data set [4] (180 min, after insulin nose drops with 0.5%), 68 mg/dL. The “Blood Glucose” value in data set [4] ([…], insulin eye drops with […]) came out at 167 mg/dL. In [4] (0.2% insulin eye drops with […] TDM), the “effect on blood glucose” value was “prompt and prominent drop in blood glucose levels”. Besides, in data set [7] (0.5% enhancer with 0.2% insulin eye drops), the “effect on blood glucose / ocular insulin absorption” value is “effective as absorption enhancers”. Further, in [7] ([…] enhancer with insulin eye drops), the “effect on ocular insulin absorption” value is “effective as absorption enhancers”. The “effect on ocular insulin absorption (alkyl chain length comparison)” value in data set [7] (alkylmaltosides with insulin eye drops) is recorded as “more effective”. In [8] ([…] in OTC nasal saline, daily, 33 days), the “irritation of the nasal mucosa” value was “no observable irritation of the nasal mucosa”.

Turning to `Cc1cc2c(s1)Nc1ccccc1N=C2N1CCN(C)CC1` [olanzapine], the “time to peak concentrations” value in [9] is listed as “approximately 6 hours”. Moreover, the first-pass effect metabolism result in data set [10] is “substantially reduced first-pass effect metabolism”. The Tmax in [11] (10 mg) was in the range of 0.25 to 0.75 h. In [11] (po), the Tmax is ~6 h and the hepatic extraction ratio is ~0.4.

In the case of `O=C(c1ccc(OCCN2CCCCC2)cc1)c1c(-c2ccc(O)cc2)sc2cc(O)ccc12` [raloxifene], in [12], the water solubility result was “approx. 0.25 mg/L”. Also, the “circulating inactive raloxifene glucuronide” value in [13] (fast-dispersing tablet 10 mg or less, 0.5% to 5% dodecyl maltoside, buccal) is “less circulating inactive raloxifene glucuronide”. Also, the bioavailability in data set [13] (human, in vivo, fast-dispersing 60 mg tablet (without alkylsaccharide), read-out: absolute bioavailability) was ~2%.

On to `CC1(C)[C@@H](O[C@@H]2OC[C@H](O[C@@H]3OC[C@@H](O)[C@H](O)[C@H]3O)[C@H](O[C@H]3O[C@H](CO)[C@@H](O)[C@H](O)[C@H]3O)[C@H]2O[C@@H]2O[C@H](CO)[C@@H](O)[C@H](O)[C@H]2O[C@H]2O[C@H](CO)[C@@H](O)[C@H](O)[C@H]2O)CC[C@]2(C)[C@H]3CCC45OCC6(CC[C@@](C)(C=O)C[C@@H]64)[C@H](O)C[C@@]5(C)[C@]3(C)CC[C@@H]12` (some centres unmarked) [saponin, reference compound], for which the “stimulation of insulin absorption from the eye” value in data set [14] is “stimulated”. Moreover, the “effect on ocular glucagon absorption / blood D-glucose” value in data set [15] is given as “effective; also recorded: rises significantly”.

Regarding `CCCCCCCCCCCC(=O)OC[C@H]1O[C@H](O[C@]2(CO)O[C@H](CO)[C@@H](O)[C@@H]2O)[C@H](O)[C@@H](O)[C@@H]1O` [sucrose dodecanoate, sucrose monododecanoate], the “amount consumable without observable adverse effect” value in data set [16] (70 kilogram person) is on record as 1400-2100 grams per day. Moreover, the “acceptable daily intake for humans” value in data set [16] (about 1% of the NOAEL) is 14-21 grams per day. Moreover, the NOAEL in [16] (in vivo) was 20-30 grams/kilogram/day. For the same compound, the “increase of oral bioavailability of phenylephrine” value in [17] is reported as “up to 50%”. Further, the “irritation of nasal epithelium” value in [8] (47 days) is given as “no observable irritation was detected”.

In the case of Calcitonin: calcitonin, in [18], the stability entry is on record as “at least 6 months”.

On to “PYY: gut hormone fragment peptide PYY3-36”, for which the “reduction of food eaten” value in [19] is recorded as 30%.

For benzalkonium chloride, the “disruption of mucociliary surfaces” value in data set [20] was “significant disruption of the mucociliary surfaces”.
